Data on one compound can be found in PMC10786692 (The Journal of Clinical Investigation, 2024).

What all share (assay type): in vivo, human
The subject of one assay is γH2AX. Put plainly: PBMC γH2AX immunofluorescence (% cells with >5 foci). To be noted: after treatment at the RP2D, most subjects. The protocol:
PD sampling took place at baseline (within 7 days prior to dosing) and between days 15 and 22 of dosing (day 14 for intermittent dosing cohorts). PD samples included PBMCs and tumor biopsies. PBMCs were analyzed by immunofluorescence for γ^(S139)H2AX, p-^(S345)Chk1, and total Chk1, as described in Supplemental Methods. Paired tumor biopsies were formalin fixed and analyzed for nuclear p-^(S635)Rad50 and γH2AX by IHC.
PBMCs were isolated from blood using BD Vacutainer® CPT™ Cell preparation tubes with sodium citrate (BD Biosciences, Wokingham, UK) and fixed with 4% formalin containing 1% Triton™ X-100 (Sigma-Aldrich, St. Louis, MO). […] A Carl Zeiss LSM 700 confocal laser scanning fluorescence microscope (Zeiss, Jena, Germany) was used to visualize and capture images of the PBMCs. Fluorescent nuclear intensity for phospho-(S345) and total Chk1 in individual PBMC cells were quantified using the IN Cell Investigator Developer Toolbox v1.9 software (GE Healthcare Biosciences, Piscataway, NJ). For the phospho(S345)- and total Chk1 assays: the raw data values (fluorescent nuclear intensity for PBMCs), the percentage change for phospho(S345) biomarker was calculated for each subject by comparing the levels measured at each post-dose time point to pre-dose levels measured at baseline. […]
Peripheral blood was drawn into 8 mL EDTA tubes (Vacutainer, BD) and analyzed within 24 hours. […]

Assay [1] deals with peripheral blood immune cells. Put plainly: Flow cytometry immune profiling of peripheral blood. The method, then: DNA-Seq of tumor and matched buffy coats was either by whole-exome sequencing or a custom-designed panel targeting all exons of genes of interest for 173 genes, including potential markers of sensitivity to ATRi. ACK-lysed whole blood or PBMCs were stained for flow cytometry using 8 multicolor panels. Plasma cytokines were assessed using the Bio-Plex Pro 27-Plex Panel (Bio-Rad). See Supplemental Methods for full information. […]
Peripheral blood was drawn into 8 mL EDTA tubes (Vacutainer, BD) and analyzed within 24
hours. ACK-lysed whole blood (for myeloid panel) or PBMC from density gradient centrifugation
(for lymphocyte panel) were used. Samples were surface-stained with antibodies for 30 mins at
4 OC. Samples were analyzed on a LSR Fortessa (BD Biosciences). FACS analyses were
CD56 PE-Dazzle 594 Biolegend
CD62L PerCp Cy5.5 Biolegend
NKp30 PerCp Cy5.5 Biolegend
TIGIT PerCp Cy5.5 eBioscience
CD45RO Pacific Blue Biolegend
CTLA-4 PE-Dazzle 594 Biolegend
CD57 PerCp Cy5.5 Biolegend
CD38 PE-Dazzle 594 Biolegend
CD11b ICRF44 PE Biolegend
HLA-DR L243 PerCP Cy5.5 Biolegend
CD16 3G8 APC-C7 Biolegend

A further assay relates to tumor biopsies. The assay can be described thus: RNA-Seq differential gene expression / GSEA of paired tumor biopsies. To be noted: after 2 weeks of ceralasertib. The protocol: Eight paired tumor biopsies were analyzed from 3 patients with PR, 4 with SD, and 1 NE, treated at various dose levels. Additional baseline samples were also available for 1 PR and 1 SD. When all samples were considered together, there were few differences in differential gene expression between baseline and on-treatment biopsies (Figure 5A). However, when responders (PR) were compared with nonresponders (SD), there were marked differences in both baseline and on-treatment gene expression (Figure 5, B–E) with clustering of a number of differentially expressed genes according to response (Supplemental Figure 8). […]
Formalin fixed paraffin-embedded tumor samples were used. […] H-score was calculated using HALO image analysis (Indica Labs). […] Nuclear ATM (Abcam 32420) IHC staining was carried out on the Ventana autostainer, using DAB detection and assessed by H-score, but samples were only deemed acceptable if lymphocyte staining (internal control) was at least 2+ (moderate) intensity. Cyclin E1 (Invitrogen HE12) staining was carried out on the Ventana autostainer, using DAB detection and the H-score was quantified using HALO image analysis (Indica Labs). Ki67 (Mib-1, Dako M7240) was scored by percent nuclear positivity using a global unweighted method, scoring 4 areas of 100 cells. […] Quantification of tumor-infiltrating lymphocytes was done using a semi-automated method in QuPath (53). […]

In the case of `C[C@@H]1COCCN1c1cc(C2([S@](C)(=N)=O)CC2)nc(-c2cc[nH]c3nccc2-3)n1` [ceralasertib], the “γH2AX positivity in PBMCs” value in the assay with γH2AX is listed as “Increased”. Further, in assay [1] (160 mg BD intermittent), the “CD8+ T cells in peripheral blood” value was “trend toward increased”; the “Classical and intermediate monocytes” value is recorded as “reduction”; the “Granulocytic MDSCs (gMDSC)” value was “increased”; the “Monocytic MDSCs (mMDSCs)” value was “reduced”. In addition, in assay [1] (160 mg BD intermittent), the “Naive and central memory CD8+ and CD4+ T cells” value is recorded as “increased”; the “PD-1–positive CD8+ T cells” value is on record as “reduction”. The “Tregs in peripheral blood” value in assay [1] (160 mg BD intermittent, 8 participants) was “reduction”. Besides, the “Memory CD4-TEMRA cells” value in assay [1] (day 29) was “increased frequencies”. Further, the “NKG2A- and CD69-positive NK cells” value in assay [1] (normalized after the 2-week break) was “trend toward increased”. Besides, the “Inflammatory response genes (GSEA), on-treatment versus baseline tumor samples” value with tumor biopsies was “enrichment”.
